Patent US20230013363A1, “COMPOSITION FOR ENHANCING REPROGRAMMING EFFICIENCY FROM SOMATIC CELL TO INDUCED PLURIPOTENT STEM CELL, COMPRISING MTOR ACTIVATOR, AND METHOD FOR ENHANCING REPROGRAMMING EFFICIENCY BY USING SAME” (KOREA UNIVERSITY RESEARCH AND BUSINESS FOUNDATION, priority 2019, published 2023)

What was measured:
[1] = system: human placenta derived cells (HPC); assay: Reprogramming efficiency of OSKM-transduced somatic cells to iPSCs (HPC); type: cell-based
Text: (§1) In order to examine whether 4,6-di-4-morpholinyl-N-(4-nitrophenyl)-1,3,5-triazin-2-amine (MHY1485, CAS Number 326914-06-1), which is an mTOR (mammalian target of rapamycin) activator, has an influence on reprogramming efficiency, reprogramming factors (OCT4, SOX2, c-Myc, KLF4; OSKM) were transduced into primary umbilical vein endothelial cells (HUVEC, ATCC #PCS-100-010), primary human dermal fibroblasts (HDF, ATCC # PCS-201-012), and human placenta derived cells (HPC) via the Sendai virus (SeV) system as shown in FIG. 1a.
(§2) Twenty-four hours after transduction, the cells were cultured for one week in a placenta-derived cell conditioned medium (PCCM) or growth medium (GM). MHY1485 was added at a dose of 2 μg/mL once per 24 hours for three weeks. After one week of the culturing in a placenta-derived cell conditioned medium (PCCM) or growth medium (GM), the cells were induced to undergo reprogramming for two weeks in Matrigel-coated culture dishes containing mTeSR medium together with MHY1485 under a general pluripotent stem cell culturing condition.

[2] = system: primary human dermal fibroblasts (HDF); assay: Reprogramming efficiency of OSKM-transduced somatic cells to iPSCs (HDF); type: cell-based
Text: as §1, §2

[3] = system: primary umbilical vein endothelial cells (HUVEC); assay: Reprogramming efficiency of OSKM-transduced somatic cells to iPSCs (HUVEC); type: cell-based, human
Text: as §1, §2

[4] = system: HUVEC, HDF, and HPC cells; assay: Reprogramming efficiency, HUVEC, HDF and HPC taken together (total of 9 dishes); type: cell-based, human
Text: as §1, §2
HUVEC, HDF, and HPC cells were induced to undergo reprogramming by treatment with MHY1485 or in PCCM in three dishes for each cell line.

[5] = system: CXCR2, mTOR, cMYC, LC3a/b, p62 in HUVEC, HDF, and HPC cells; assay: Western blot of protein expression in somatic cells with or without MHY1485; type: cell-based, human
Text: as §1, §2
Western blotting identified the expression of CXCR2, mTOR, and cMYC. Autophagic flux activity was identified […].

[6] = system: LC3a/b in HUVEC, HDF, and HPC cells; assay: Immunofluorescence assay of LC3a/b (autophagy) in somatic cells; type: cell-based, human; conditions: rapamycin as control
[7] = GM + MHY1485 (2 μg/mL once per 24 hours for three weeks)
[8] = treatment with MHY1485 vs no treatment

O=[N+]([O-])c1ccc(Nc2nc(N3CCOCC3)nc(N3CCOCC3)n2)cc1 [MHY1485, 4,6-di-4-morpholinyl-N-(4-nitrophenyl)-1,3,5-triazin-2-amine]
Reprogramming efficiency (%) [1, 7]: 0.35% | Reprogramming efficiency (%) ([1]; hPCCM + MHY1485 (2 μg/mL)): 0.92% | Reprogramming efficiency (%) [2, 7]: 0.04% | Reprogramming efficiency (%) ([2]; hPCCM + MHY1485 (2 μg/mL)): 0.07% | Reprogramming efficiency (%) [3, 7]: 0.13% | Reprogramming efficiency (%) ([3]; hPCCM + MHY1485 (2 μg/mL)): 0.39% | Reprogramming efficiency (%) ([4]; GM + MHY1485, HUVEC, HDF, HPC, three dishes each, total of 9 dishes): 0.17% | effect of increasing reprogramming efficiency, compared to the employment of PCCM medium ([4]; MHY1485 treatment vs PCCM medium, FIG. 4 and Table 2): significantly higher | reprogramming efficiency compared to untreated cells ([4]; all the cells (HUVEC, HDF, HPC), FIGS. 2a to 2c): increased | expression level of p62 (indicates inactivation of autophagic flux) ([5]; treatment with MHY1485): increased | expression of CXCR2 [5, 8]: increased | expression of LC3a/b [5, 8]: decreased | expression of cMYC [5, 8]: increased | expression of mTOR [5, 8]: increased | expression of LC3a/b (inhibition of autophagy) [6]: decreased
